The text below walks through data of PubChem BioAssay AID192 (DTP/NCI, 2004).

Several values for one entry are separate records, joined by “and”; a condition that tells them apart may be missing. Identical values can stand only once. Inconclusive results and toxic doses are left out.

This test concerns BDF1 mice, B16 melanoma ip, median survival T/C. As to the kind of experiment: NCI In Vivo Anticancer Drug Screen. Data for tumor model B16 Melanoma (intraperitoneal) in B6D2F1 (BDF1) mice. The conditions noted are these: endpoint: median survival time, higher = longer survival. In short, it runs like this: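 Antitumor activity is assessed in mice bearing a transplanted tumor, with survival or tumor size compared against vehicle-dosed controls and expressed as T/C.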

Where [1] appears, read: dose: 6.25 mg/kg/injection, schedule: Q01DX009 (ip), vehicle: saline with Tween-80.
The mark [2] stands for this setting: dose: 25.0 mg/kg/injection, schedule: Q01DX009 (ip), vehicle: saline with Tween-80.
[3] abbreviates: dose: 50.0 mg/kg/injection, schedule: Q01DX009 (ip), vehicle: saline with Tween-80.
Setting [4] is: dose: 100.0 mg/kg/injection, schedule: Q01DX009 (ip), vehicle: saline with Tween-80.
[5] abbreviates: dose: 200.0 mg/kg/injection, schedule: Q01DX009 (ip), vehicle: saline with Tween-80.
Setting [6] is: dose: 400.0 mg/kg/injection, schedule: Q01DX009 (ip), vehicle: saline with Tween-80.
[7] abbreviates: dose: 100.0 mg/kg/injection, schedule: Q01DX009 (ip), vehicle: Klucel (hydroxypropylcellulose) (HPC).
[8] abbreviates: dose: 200.0 mg/kg/injection, schedule: Q01DX009 (ip), vehicle: Klucel (hydroxypropylcellulose) (HPC).
Setting [9] is: dose: 400.0 mg/kg/injection, schedule: Q01DX009 (ip), vehicle: Klucel (hydroxypropylcellulose) (HPC).
Setting [10] is: dose: 25.0 mg/kg/injection, schedule: Q01DX009 (ip), vehicle: saline.
The mark [11] stands for this setting: dose: 50.0 mg/kg/injection, schedule: Q01DX009 (ip), vehicle: saline.
Where [12] appears, read: dose: 100.0 mg/kg/injection, schedule: Q01DX009 (ip), vehicle: saline.
The mark [13] stands for this setting: dose: 12.5 mg/kg/injection, schedule: Q01DX009 (ip), vehicle: saline.

Consider `O=NN(CCF)C(=O)NCCO`, for which the T/C reads like this: (dose: 1.88 mg/kg/injection, schedule: Q01DX001 (ip), vehicle: saline) 115 % of control; (dose: 3.75 mg/kg/injection, schedule: Q01DX001 (ip), vehicle: saline) 114 % of control; (dose: 15.0 mg/kg/injection, schedule: Q01DX001 (ip), vehicle: saline) 172 % of control; (dose: 30.0 mg/kg/injection, schedule: Q01DX001 (ip), vehicle: saline) 231 % of control; (dose: 60.0 mg/kg/injection, schedule: Q01DX001 (ip), vehicle: saline) 212 % of control.

In the case of `CC1(C)OC2C(COC(=O)c3ccc([N+](=O)[O-])cc3)OC(NC(=O)N(CCCl)N=O)C2O1` (configuration not stated), the T/C runs as follows: under setting [1], 158 % of control; (dose: 12.5 mg/kg/injection, schedule: Q01DX009 (ip), vehicle: saline with Tween-80) 215 % of control; under setting [2], 204 % of control and 283 % of control; under setting [3], 206 % of control.

Consider `NC1c2cc(Cl)ccc2-c2c(Cl)cc(Cl)cc21` (configuration not stated), for which the T/C by setting is: under setting [4], 109 % of control; under setting [5], 111 % of control; under setting [6], 102 % of control.

As to `O=C(O)CCC(=O)CCC(=O)c1ccccc1`, the T/C under setting [3] is 95 % of control, the T/C under setting [4] was 100 % of control and the T/C under setting [5] was 93 % of control.

Regarding `COc1ccc(NC(=O)c2cccc(C(=O)Nc3ccc(OC)cc3)c2)cc1`, the T/C reads like this: under setting [7], 102 % of control; under setting [8], 108 % of control; under setting [9], 102 % of control.

For `N/N=C(\N)c1nn(C2OC(CO)C(O)C2O)c2ncnc(N)c12` (configuration not stated), the T/C was 91 % of control (dose: 40.0 mg/kg/injection, schedule: Q01DX005 (ip), vehicle: saline); 95 % of control (dose: 80.0 mg/kg/injection, schedule: Q01DX005 (ip), vehicle: saline); 100 % of control (dose: 160.0 mg/kg/injection, schedule: Q01DX005 (ip), vehicle: saline).

`CCC(=O)c1ccc2c(c1)N(CCCN1CCN(CCO)CC1)c1ccccc1S2`: the T/C is, setting by setting: (dose: 0.25 mg/kg/injection, schedule: Q01DX009 (ip), vehicle: saline) 100 % of control; (dose: 0.5 mg/kg/injection, schedule: Q01DX009 (ip), vehicle: saline) 95 % of control; (dose: 1.0 mg/kg/injection, schedule: Q01DX009 (ip), vehicle: saline) 92 % of control; (dose: 2.0 mg/kg/injection, schedule: Q01DX009 (ip), vehicle: saline) 89 % of control; (dose: 4.0 mg/kg/injection, schedule: Q01DX009 (ip), vehicle: saline) 105 % of control.

For `NN1CCCC1`, the T/C was 110 % of control under setting [10], 102 % of control under setting [11] and 94 % of control under setting [12].

`COc1c2c(cc3c1C(Cl)N(C)CC3)OCO2` (configuration not stated): the T/C is, setting by setting: under setting [13], 96 % of control; under setting [10], 110 % of control; under setting [11], 106 % of control.

As for `C1OC1CO[C@@H]1CO[C@H]2[C@@H]1OC[C@H]2OCC1CO1` (some centres not stated), the T/C was 94 % of control under setting [13]; 94 % of control under setting [10]; 87 % of control under setting [3]; 115 % of control under setting [11]; 97 % of control under setting [4]; 104 % of control under setting [12]. Moreover, the T/C is, setting by setting: (dose: 100.0 mg/kg/injection, schedule: Q04DX003 (ip), vehicle: saline with Tween-80) 116 % of control; (dose: 200.0 mg/kg/injection, schedule: Q01DX009 (ip), vehicle: saline) 326 % of control; (dose: 266.0 mg/kg/injection, schedule: Q04DX003 (ip), vehicle: saline with Tween-80) 104 % of control; (dose: 400.0 mg/kg/injection, schedule: Q01DX009 (ip), vehicle: saline) 327 % of control; (dose: 600.0 mg/kg/injection, schedule: Q04DX003 (ip), vehicle: saline with Tween-80) 109 % of control.

With `C/C1=C/C2=CC(C)C[C@@H]2C(=O)[C@]2(C)C(=O)CC(C)(C)[C@H]2CC1=O` (some centres not stated), the T/C (dose: 0.13 mg/kg/injection, schedule: Q01DX009 (ip), vehicle: Klucel (hydroxypropylcellulose) (HPC)) is 102 % of control; the T/C (dose: 0.25 mg/kg/injection, schedule: Q01DX009 (ip), vehicle: Klucel (hydroxypropylcellulose) (HPC)) was 96 % of control; the T/C (dose: 0.5 mg/kg/injection, schedule: Q01DX009 (ip), vehicle: Klucel (hydroxypropylcellulose) (HPC)) was 96 % of control; the T/C (dose: 1.0 mg/kg/injection, schedule: Q01DX009 (ip), vehicle: Klucel (hydroxypropylcellulose) (HPC)) is 91 % of control.

Take `CN(C)CCN1C(=O)c2cccc3cc(N)cc(c23)C1=O`: the T/C is, setting by setting: (dose: 1.0 mg/kg/injection, schedule: Q01DX009 (ip), vehicle: acid diluted with saline) 99 % of control; (dose: 2.0 mg/kg/injection, schedule: Q01DX009 (ip), vehicle: acid diluted with saline) 110 % of control; (dose: 4.0 mg/kg/injection, schedule: Q01DX009 (ip), vehicle: acid diluted with saline) 114 % of control; (dose: 8.0 mg/kg/injection, schedule: Q01DX009 (ip), vehicle: acid diluted with saline) 122 % of control; (dose: 16.0 mg/kg/injection, schedule: Q01DX009 (ip), vehicle: acid diluted with saline) 155 % of control.

On to `CCCOP(OCCC)OCCC`, for which the T/C runs as follows: (dose: 6.25 mg/kg/injection, schedule: Q01DX009 (ip), vehicle: saline) 109 % of control; under setting [13], 118 % of control; under setting [10], 100 % of control; under setting [11], 92 % of control.

On to `CCCCCCCCCCCCCCCC(=O)N(C(C)CCCN(CC)CC)C(C)CCCN(CC)CC` (configuration not stated), for which the T/C is 91 % of control (dose: 3.13 mg/kg/injection, schedule: Q01DX009 (ip), vehicle: other) and 92 % of control (dose: 12.5 mg/kg/injection, schedule: Q01DX009 (ip), vehicle: other).

`CC1(C)CC(C)(c2ccc(O)cc2)c2ccccc2O1` (configuration not stated): the T/C runs as follows: under setting [4], 100 % of control; under setting [5], 86 % of control; under setting [6], 86 % of control.

With `Cc1cc(Cl)ccc1OCC(=O)Nc1nc(N)nc(N)n1`, the T/C was 88 % of control (dose: 12.5 mg/kg/injection, schedule: Q04DX009 (ip), vehicle: Klucel (hydroxypropylcellulose) (HPC)); 92 % of control (dose: 25.0 mg/kg/injection, schedule: Q04DX009 (ip), vehicle: Klucel (hydroxypropylcellulose) (HPC)); 87 % of control (dose: 50.0 mg/kg/injection, schedule: Q04DX009 (ip), vehicle: Klucel (hydroxypropylcellulose) (HPC)).

Turning to `COc1ccccc1N=Nc1c(O)ccc2ccccc12`, the T/C runs as follows: under setting [2], 101 % of control; under setting [3], 112 % of control; under setting [4], 108 % of control.

As to `FC(F)(F)c1cc(CN(CCCl)CCCl)cc(C(F)(F)F)c1`, the T/C under setting [13] is 97 % of control and the T/C under setting [10] is 92 % of control.

`COC(=O)[C@]1(C)CCC[C@]2(C)[C@H]3CC4OO[C@@]3(CC[C@H]21)[C@H]1O[C@@]41C(C)C`: the T/C is 100 % of control under setting [4] and 113 % of control under setting [5].

Regarding `CC1CCN(c2ccc([N+](=O)[O-])cc2)CC1`, the T/C runs as follows: under setting [7], 106 % of control; under setting [8], 87 % of control; under setting [9], 96 % of control.

With `Cc1ccc[c]([Hg][Cl])c1N=Nc1ccccc1`, the T/C (dose: 0.39 mg/kg/injection, schedule: Q01DX009 (ip), vehicle: saline with Tween-80) was 101 % of control; the T/C (dose: 0.78 mg/kg/injection, schedule: Q01DX009 (ip), vehicle: saline with Tween-80) was 100 % of control; the T/C (dose: 1.56 mg/kg/injection, schedule: Q01DX009 (ip), vehicle: saline with Tween-80) was 97 % of control; the T/C (dose: 3.12 mg/kg/injection, schedule: Q01DX009 (ip), vehicle: saline with Tween-80) was 97 % of control; the T/C under setting [1] was 94 % of control.

With `NC(c1ccccc1)C(N)c1ccccc1` (configuration not stated), the T/C (dose: 25.0 mg/kg/injection, schedule: Q04DX003 (ip), vehicle: other) was 97 % of control; the T/C (dose: 50.0 mg/kg/injection, schedule: Q04DX003 (ip), vehicle: other) was 97 % of control; the T/C (dose: 100.0 mg/kg/injection, schedule: Q04DX003 (ip), vehicle: other) is 86 % of control.
